Laboratory results reported in patent publication US9247759B2, “Identification of human T2R receptors that respond to bitter compounds that elicit the bitter taste in compositions, and the use thereof in assays to identify compounds that inhibit (block) bitter taste in compositions and use thereof” (SENOMYX, INC., priority 2007, dated 2016).

Experiments:
hT2R3 = hT2R3 (Homo sapiens (Human), UniProt Q9NYW6); assay: hT2R panel inhibition, transient HEK293 G16g44, agonist Chloroquine pH6.5 50 μM; format: cell-based; conditions: HEK293, compound at 25 μM; receptor activated to EC80 with the corresponding agonist; read-out: screening result against bitter receptor 3
Sequence of hT2R3 (Q9NYW6 whole entry): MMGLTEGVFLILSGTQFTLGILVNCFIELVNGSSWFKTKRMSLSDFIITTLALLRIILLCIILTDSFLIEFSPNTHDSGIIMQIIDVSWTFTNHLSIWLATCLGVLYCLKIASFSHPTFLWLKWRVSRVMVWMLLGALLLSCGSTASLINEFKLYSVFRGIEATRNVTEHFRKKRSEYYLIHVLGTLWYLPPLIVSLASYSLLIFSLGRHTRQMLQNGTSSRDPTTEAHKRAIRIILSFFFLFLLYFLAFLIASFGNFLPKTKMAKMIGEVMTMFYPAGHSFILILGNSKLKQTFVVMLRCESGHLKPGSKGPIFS
Outline: (§1)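 Selectivity screen across 22 hT2Rs, each transfected singly into a G16g44-stable HEK293 background. Agonist dosed at EC80. Inhibition = reduced receptor response in presence of test compound.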

hT2R51 = hT2R51 (Homo sapiens (Human), UniProt P59533); assay: hT2R panel inhibition, transient HEK293 G16g44, agonist Prop 2.5 μM; format: cell-based; conditions: HEK293, compound at 25 μM; receptor activated to EC80 with the corresponding agonist; read-out: screening result against bitter receptor 51
Sequence of hT2R51 (P59533 whole entry): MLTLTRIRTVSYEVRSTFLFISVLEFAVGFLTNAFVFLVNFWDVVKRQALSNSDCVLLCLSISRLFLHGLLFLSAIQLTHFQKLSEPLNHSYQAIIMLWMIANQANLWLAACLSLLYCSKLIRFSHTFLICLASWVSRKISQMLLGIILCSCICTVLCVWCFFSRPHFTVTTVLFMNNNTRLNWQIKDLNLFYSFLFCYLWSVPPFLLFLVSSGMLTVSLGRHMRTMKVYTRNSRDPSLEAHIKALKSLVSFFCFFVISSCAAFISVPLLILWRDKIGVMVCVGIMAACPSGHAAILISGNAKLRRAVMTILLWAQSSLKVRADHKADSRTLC
Description: (§2) Specifically, in order to evaluate the inhibitory selectivity of the Compound C compound, this compound was tested against 22 human T2Rs which were deorphaned by Senomyx. These receptors and the bitter ligands that activate these human T2Rs are reported in earlier patent applications which are incorporated by reference herein. These 22 human T2Rs are hT2R1, 3, 4, 5, 7, 8, 9, 10, 13, 14, 16, 44, 51, 54, 55, 61, 63, 64, 65, 67, 71 and 75. The amino acid and nucleic acid sequences of all of these T2Rs may be found in these earlier patent applications. These human T2Rs were each individually transiently transfected into HEK293 cells that stably express the promiscuous G protein G16g44 and functional assays were effected using these receptors as disclosed in these same patent applications. […] The ligands were used at EC80 concentration levels. The list of bitter ligands utilized and the tested ligand concentrations are contained in Table 5 of this example.
(§3) Relating to the foregoing, FIG. 5 contains experimental results wherein Compound C was tested with different agonist compounds. The inhibition activity is represented by the reduction of receptor activity in the presence of Compound C. […] These 13 hT2Rs are hT2R3, 7, 10, 14, 16, 44, 51, 55, 61, 63, 64, 65, and 71.

hT2R44 = assay: hT2R panel inhibition, transient HEK293 G16g44, agonist Denatonium 0.5 μM; format: cell-based, human; conditions: compound at 25 μM; receptor activated to EC80 with the corresponding agonist
Outline: as §1

hT2R75 = hT2R75 (Homo sapiens (Human), UniProt P59540); assay: hT2R panel inhibition, transient HEK293 G16g44, agonist Strychnine 1 μM; format: cell-based; conditions: HEK293, read-out: screening result against bitter receptor 75, compound at 25 μM; receptor activated to EC80 with the corresponding agonist
Sequence of hT2R75 (P59540 whole entry): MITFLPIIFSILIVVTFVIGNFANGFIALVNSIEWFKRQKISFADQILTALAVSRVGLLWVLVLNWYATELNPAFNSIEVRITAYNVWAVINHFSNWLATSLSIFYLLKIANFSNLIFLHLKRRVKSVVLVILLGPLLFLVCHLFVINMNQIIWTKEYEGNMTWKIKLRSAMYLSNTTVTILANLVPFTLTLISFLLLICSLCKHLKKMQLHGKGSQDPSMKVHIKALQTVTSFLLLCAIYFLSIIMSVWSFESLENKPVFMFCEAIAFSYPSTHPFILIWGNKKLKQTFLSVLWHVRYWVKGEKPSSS
Description: as §2, §3

hT2R61 = hT2R61 (Homo sapiens (Human), UniProt P59537); assay: hT2R panel inhibition, transient HEK293 G16g44, agonist Aristolochic Acid 25 nM; format: cell-based; conditions: HEK293, compound at 25 μM; receptor activated to EC80 with the corresponding agonist; read-out: screening result against bitter receptor 61
Sequence of hT2R61 (P59537 whole entry): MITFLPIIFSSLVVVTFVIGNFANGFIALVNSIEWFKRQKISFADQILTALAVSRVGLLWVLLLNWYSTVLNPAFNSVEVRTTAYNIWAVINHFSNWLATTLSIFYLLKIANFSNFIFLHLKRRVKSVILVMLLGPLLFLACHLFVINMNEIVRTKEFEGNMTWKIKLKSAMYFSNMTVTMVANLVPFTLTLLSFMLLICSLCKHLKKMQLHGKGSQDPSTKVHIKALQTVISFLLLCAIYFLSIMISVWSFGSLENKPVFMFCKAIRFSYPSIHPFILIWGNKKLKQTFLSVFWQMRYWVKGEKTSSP
Outline: as §1

hT2R5 = hT2R5 (Homo sapiens (Human), UniProt Q9NYW4); assay: hT2R panel inhibition, transient HEK293 G16g44, agonist Picoline 10 mM; format: cell-based; conditions: HEK293, compound at 25 μM; receptor activated to EC80 with the corresponding agonist; read-out: screening result against bitter receptor 5
Sequence of hT2R5 (Q9NYW4 whole entry): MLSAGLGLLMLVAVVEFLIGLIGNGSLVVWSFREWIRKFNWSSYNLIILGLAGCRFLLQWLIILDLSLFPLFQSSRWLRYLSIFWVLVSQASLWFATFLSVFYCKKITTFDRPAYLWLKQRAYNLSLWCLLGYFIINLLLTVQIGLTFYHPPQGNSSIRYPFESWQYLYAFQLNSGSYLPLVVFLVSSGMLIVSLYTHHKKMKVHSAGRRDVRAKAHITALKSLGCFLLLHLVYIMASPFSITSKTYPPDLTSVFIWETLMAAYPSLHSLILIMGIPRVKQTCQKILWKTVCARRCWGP
Outline: as §1

hT2R7 = hT2R7 (Homo sapiens (Human), UniProt Q9NYW3); assay: hT2R panel inhibition, transient HEK293 G16g44, agonist Chloroquine pH6.5 10 mM; format: cell-based; conditions: HEK293, compound at 25 μM; receptor activated to EC80 with the corresponding agonist; read-out: screening result against bitter receptor 7
Sequence of hT2R7 (Q9NYW3 whole entry): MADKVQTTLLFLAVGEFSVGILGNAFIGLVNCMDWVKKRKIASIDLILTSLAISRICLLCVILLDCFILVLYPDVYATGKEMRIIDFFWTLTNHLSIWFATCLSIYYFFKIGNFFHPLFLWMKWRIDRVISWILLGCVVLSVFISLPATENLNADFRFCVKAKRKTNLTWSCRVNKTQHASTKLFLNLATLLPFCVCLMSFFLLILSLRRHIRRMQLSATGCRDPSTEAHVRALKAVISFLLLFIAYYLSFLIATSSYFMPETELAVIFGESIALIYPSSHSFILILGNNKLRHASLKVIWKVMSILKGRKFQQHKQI
Description: as §2, §3

hT2R71 = hT2R71 (Homo sapiens (Human), UniProt P59536); assay: hT2R panel inhibition, transient HEK293 G16g44, agonist Picric Acid 10 μM; format: cell-based; conditions: HEK293, compound at 25 μM; receptor activated to EC80 with the corresponding agonist; read-out: screening result against bitter receptor 71
Sequence of hT2R71 (P59536 whole entry): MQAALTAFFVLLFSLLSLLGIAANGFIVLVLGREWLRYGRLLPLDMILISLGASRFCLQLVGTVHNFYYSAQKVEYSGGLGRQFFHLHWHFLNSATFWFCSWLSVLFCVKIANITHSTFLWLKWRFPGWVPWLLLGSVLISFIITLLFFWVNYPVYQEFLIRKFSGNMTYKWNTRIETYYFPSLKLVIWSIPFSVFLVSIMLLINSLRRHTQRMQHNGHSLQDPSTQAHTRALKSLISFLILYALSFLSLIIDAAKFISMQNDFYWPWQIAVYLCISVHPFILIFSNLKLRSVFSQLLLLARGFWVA
Outline: as §1

hT2R16 = hT2R16 (Homo sapiens (Human), UniProt Q9NYV7); assay: hT2R panel inhibition, transient HEK293 G16g44, agonist Salicin 1 mM; format: cell-based; conditions: HEK293, compound at 25 μM; receptor activated to EC80 with the corresponding agonist; read-out: screening result against bitter receptor 16
Sequence of hT2R16 (Q9NYV7 whole entry): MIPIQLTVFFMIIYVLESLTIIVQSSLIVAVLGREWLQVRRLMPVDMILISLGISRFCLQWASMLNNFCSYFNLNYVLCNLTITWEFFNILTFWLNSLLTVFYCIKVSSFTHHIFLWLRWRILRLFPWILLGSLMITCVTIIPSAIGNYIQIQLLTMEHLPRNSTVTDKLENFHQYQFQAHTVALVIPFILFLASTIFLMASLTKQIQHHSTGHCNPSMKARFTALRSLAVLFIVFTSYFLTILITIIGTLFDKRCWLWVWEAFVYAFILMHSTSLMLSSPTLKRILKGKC
Outline: as §1

hT2R67 = assay: hT2R panel inhibition, transient HEK293 G16g44, agonist Andrographolide 5 μM; format: cell-based, human; conditions: compound at 25 μM; receptor activated to EC80 with the corresponding agonist
Description: as §2, §3

hT2R63 = assay: hT2R panel inhibition, transient HEK293 G16g44, agonist Caffeine 1 mM or Andrographolide 100 μM; format: cell-based, human; conditions: compound at 25 μM; receptor activated to EC80 with the corresponding agonist
Outline: as §1

hT2R55 = assay: hT2R panel inhibition, transient HEK293 G16g44, agonist Cinchonine 150 μM; format: cell-based, human; conditions: compound at 25 μM; receptor activated to EC80 with the corresponding agonist
Outline: as §1

hT2R64 = hT2R64 (Homo sapiens (Human), UniProt P59538); assay: hT2R panel inhibition, transient HEK293 G16g44, agonist Aristolochic Acid 1 μM; format: cell-based; conditions: HEK293, compound at 25 μM; receptor activated to EC80 with the corresponding agonist; read-out: screening result against bitter receptor 64
Sequence of hT2R64 (P59538 whole entry): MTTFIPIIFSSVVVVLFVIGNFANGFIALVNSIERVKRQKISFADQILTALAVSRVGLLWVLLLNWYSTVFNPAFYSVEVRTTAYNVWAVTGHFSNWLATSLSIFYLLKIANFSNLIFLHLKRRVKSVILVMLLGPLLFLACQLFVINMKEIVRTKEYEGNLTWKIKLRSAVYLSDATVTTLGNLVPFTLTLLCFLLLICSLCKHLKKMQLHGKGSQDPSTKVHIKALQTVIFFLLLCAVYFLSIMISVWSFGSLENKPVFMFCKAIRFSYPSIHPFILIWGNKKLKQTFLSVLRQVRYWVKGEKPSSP
Outline: as §1

hT2R14 = hT2R14 (Homo sapiens (Human), UniProt Q9NYV8); assay: hT2R panel inhibition, transient HEK293 G16g44, agonist Aristolochic Acid 2 μM; format: cell-based; conditions: HEK293, compound at 25 μM; receptor activated to EC80 with the corresponding agonist; read-out: screening result against bitter receptor 14
Sequence of hT2R14 (Q9NYV8 whole entry): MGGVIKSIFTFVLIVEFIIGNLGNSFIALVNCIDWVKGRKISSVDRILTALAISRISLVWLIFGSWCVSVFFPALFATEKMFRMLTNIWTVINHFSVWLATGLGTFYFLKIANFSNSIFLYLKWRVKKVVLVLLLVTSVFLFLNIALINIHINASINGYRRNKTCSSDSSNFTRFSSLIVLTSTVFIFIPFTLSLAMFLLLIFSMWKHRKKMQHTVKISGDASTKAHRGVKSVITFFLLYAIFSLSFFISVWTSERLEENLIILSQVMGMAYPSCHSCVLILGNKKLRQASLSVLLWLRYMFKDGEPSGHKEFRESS
Outline: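 Agonist challenge was at EC80, with 0.5 mM andrographolide on hT2R8 and 2 μM aristolochic acid on hT2R14. Inhibition was measured in functional assays in HEK293 cells that stably carry the promiscuous G protein G16g44 and were transiently transfected with the individual receptor.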

hT2R65 = assay: hT2R panel inhibition, transient HEK293 G16g44, agonist Oleuropein 1 mM; format: cell-based, human; conditions: compound at 25 μM; receptor activated to EC80 with the corresponding agonist
Description: as §2, §3

hT2R10 = hT2R10 (Homo sapiens (Human), UniProt Q9NYW0); assay: hT2R panel inhibition, transient HEK293 G16g44, agonist Strychnine 50 μM; format: cell-based; conditions: HEK293, read-out: screening result against bitter receptor 10, compound at 25 μM; receptor activated to EC80 with the corresponding agonist
Sequence of hT2R10 (Q9NYW0 whole entry): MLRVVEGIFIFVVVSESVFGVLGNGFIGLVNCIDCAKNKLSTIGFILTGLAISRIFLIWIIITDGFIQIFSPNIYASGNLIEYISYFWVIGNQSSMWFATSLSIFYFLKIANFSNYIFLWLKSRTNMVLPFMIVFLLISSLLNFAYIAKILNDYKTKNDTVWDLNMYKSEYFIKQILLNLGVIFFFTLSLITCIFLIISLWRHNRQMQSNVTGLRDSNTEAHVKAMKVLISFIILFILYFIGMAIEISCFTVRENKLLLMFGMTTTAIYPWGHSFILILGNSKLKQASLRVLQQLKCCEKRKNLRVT

hT2R54 = assay: hT2R panel inhibition, transient HEK293 G16g44, agonist Ranitidine 5 mM; format: cell-based, human; conditions: compound at 25 μM; receptor activated to EC80 with the corresponding agonist
Description: as §2, §3

SMILES	inhibition at 25 µM (hT2R3) [%]	inhibition at 25 µM (hT2R51) [%]	screening result against bitter receptor 44 (hT2R44)	inhibition at 25 µM (hT2R75) [%]	inhibition at 25 µM (hT2R61) [%]	inhibition at 25 µM (hT2R5) [%]	inhibition at 25 µM (hT2R7) [%]	inhibition at 25 µM (hT2R71) [%]	inhibition at 25 µM (hT2R16) [%]	screening result against bitter receptor 67 (hT2R67)	screening result against bitter receptor 63 (hT2R63)	screening result against bitter receptor 55 (hT2R55)	inhibition at 25 µM (hT2R64) [%]	inhibition at 25 µM (hT2R14) [%]	screening result against bitter receptor 65 (hT2R65)	inhibition at 25 µM (hT2R10) [%]	screening result against bitter receptor 54 (hT2R54)
COc1ccc(CN(C(C)c2ccccc2)S(=O)(=O)c2ccc(C(=O)O)cc2)cc1 (stereo not shown) [Example 5-95, 4-(N-(4-methoxybenzyl)-N-(1-phenylethyl)sulfamoyl)benzoic acid]	40 to 60	20 to 40	+++ (60% to 80% inhibition = +++)	20 to 40	> 80	20 to 40	20 to 40	40 to 60	40 to 60	+ (20% to 40% inhibition = +)	++++ (80% or greater inhibition = ++++)	++++ (80% or greater inhibition = ++++)	60 to 80	> 80	+++ (60% to 80% inhibition = +++)	20 to 40	
CSc1ccc(CN(Cc2ccccc2)S(=O)(=O)c2ccc(C(=O)O)cc2)cc1 [Example 5-78, 4-(N-benzyl-N-(4-(methylthio)benzyl)sulfamoyl)benzoic acid]	20 to 40	20 to 40	+ (20% to 40% inhibition = +)	20 to 40	> 80	20 to 40		40 to 60	20 to 40	+ (20% to 40% inhibition = +)	+++ (60% to 80% inhibition = +++)	+++ (60% to 80% inhibition = +++)	40 to 60	> 80	+++ (60% to 80% inhibition = +++)	20 to 40	+ (20% to 40% inhibition = +)
COc1ccc(CN(Cc2ccccc2)S(=O)(=O)c2ccc(CCC(=O)O)cc2)cc1 [Example 5-59, 3-(4-(N-benzyl-N-(4-methoxybenzyl)sulfamoyl)phenyl)propanoic acid]				20 to 40	40 to 60						+ (20% to 40% inhibition = +)						
N#Cc1cccc(CN(Cc2ccccc2)S(=O)(=O)c2ccc(C(=O)O)cc2)c1 [Example 5-75, 4-(N-benzyl-N-(3-cyanobenzyl)sulfamoyl)benzoic acid]		20 to 40		20 to 40	20 to 40	20 to 40					+ (20% to 40% inhibition = +)						
